Data on 32 molecules can be found in ChEMBL document CHEMBL5620428, “Discovery of tetrahydroisoquinolineindole derivatives as first dual PRMT5 inhibitors/hnRNP E1 upregulators: Design, synthesis and biological evaluation” (Eur J Med Chem, 2023).

In data set [1] the target is Protein arginine N-methyltransferase 5 (Homo sapiens, UniProt O14744). The data set is described as follows: Inhibition of PRMT5 (unknown origin).
Data set [2] concerns A549. The data set is described as follows: Antiproliferative activity against human A549 cells assessed as reduction in cell viability at 25 uM incubated for 24 hrs by SRB assay. The format is functional, cell-based. (In general: Sulforhodamine B stains cellular protein and so reports cell mass.)
Data set [3] is described as follows: AUC (0 to infinity) in Sprague-Dawley rat at 10 mg/kg, po measured upto 24 hrs by LC-MS/MS analysis. The format is ADME, organism-based. As to conditions: in vivo.
The nature of data set [4]: Metabolic stability in rat liver microsome assessed as half life measured upto 4 hrs in presence of NADPH by LC-MS/MS analysis. The format is ADME. The conditions noted are these: liver microsomes.
Data set [5] in a line: AUC (0 to t) in Sprague-Dawley rat at 10 mg/kg, po measured upto 24 hrs by LC-MS/MS analysis. The format is ADME, organism-based. As to conditions: in vivo.
Data set [6] is described as follows: Half life in Sprague-Dawley rat at 10 mg/kg, po measured upto 24 hrs by LC-MS/MS analysis. Type of data set: ADME, organism-based. As to conditions: in vivo.
A short description of data set [7]: Tmax in Sprague-Dawley rat at 10 mg/kg, po measured upto 24 hrs by LC-MS/MS analysis. The format is ADME, organism-based. As to conditions: in vivo.
Data set [8] is described as follows: Metabolic stability in human liver microsome assessed as half life measured upto 4 hrs in presence of NADPH by LC-MS/MS analysis. The format is ADME. The conditions noted are these: liver microsomes. A general note: Microsomes from liver hold many membrane-bound enzymes, among them those of drug oxidation.
Data set [9] can be described thus: Cmax in Sprague-Dawley rat at 10 mg/kg, po measured upto 24 hrs by LC-MS/MS analysis. The conditions noted are these: in vivo. Type of data set: ADME, organism-based.
A short description of data set [10]: Antiproliferative activity against human L02 cells assessed as inhibition of cell growth incubated for 24 hrs by SRB assay. The format is toxicity, cell-based.
Data set [11] relates to A549. Description: Upregulation of hnRNP E1 gene expression in human A549 cells at 12.5 to 50 uM incubated for 24 hrs by Western blot analysis. Type of data set: functional, cell-based. The conditions noted are these: dose 12.5-50 µM. (In general: A western blot detects proteins with antibodies after separation by electrophoresis.)
Data set [12] has as its system A549. The data set is described as follows: Inhibition of cell migration human A549 cells assessed as decrease in migration distance at 12.5 to 25 uM incubated upto 12 hrs by wound healing assay. As to conditions: dose 12.5-25 µM. Type of data set: functional, cell-based.
Data set [13] relates to A549. Description: Antiproliferative activity against human A549 cells assessed as inhibition of cell growth incubated for 24 hrs by SRB assay. Type of data set: functional, cell-based. The conditions noted are these: A549, 24 h.
For the next data set, the system named is MCF7. The data set is described as follows: Antiproliferative activity against human MCF7 cells assessed as inhibition of cell growth incubated for 24 hrs by SRB assay. The conditions noted are these: MCF7, 24 h. The format is functional, cell-based.
For data set [14], the system named is A549. The data set is described as follows: Induction of apoptosis in human A549 cells assessed as nuclear fragmentation incubated for 24 hrs by Hoechst 33342 staining based analysis. The format is functional, cell-based. The conditions noted are these: dose 12.5-50 µM.
Data set [15] relates to A549. The data set is described as follows: Anticancer activity against human A549 cells assessed as decrease in cell number incubated for 24 hrs by SRB assay. The conditions noted are these: dose 12.5-50 µM. Type of data set: functional, cell-based.
The next data set concerns HepG2. The data set is described as follows: Antiproliferative activity against human HepG2 cells assessed as inhibition of cell growth incubated for 24 hrs by SRB assay. The format is functional, cell-based. The conditions noted are these: HepG2, 24 h.
Data set [16] relates to A549. The data set is described as follows: Induction of apoptosis in human A549 cells at 2.5 to 50 uM incubated for 24 hrs by Hoechst 33342 staining based analysis. Type of data set: functional. As to conditions: dose 2.5-50 µM.
For data set [17], the target named is T1, Histone-arginine methyltransferase CARM1 (Homo sapiens, UniProt Q86X55).
T1 sequence (Q86X55 whole entry): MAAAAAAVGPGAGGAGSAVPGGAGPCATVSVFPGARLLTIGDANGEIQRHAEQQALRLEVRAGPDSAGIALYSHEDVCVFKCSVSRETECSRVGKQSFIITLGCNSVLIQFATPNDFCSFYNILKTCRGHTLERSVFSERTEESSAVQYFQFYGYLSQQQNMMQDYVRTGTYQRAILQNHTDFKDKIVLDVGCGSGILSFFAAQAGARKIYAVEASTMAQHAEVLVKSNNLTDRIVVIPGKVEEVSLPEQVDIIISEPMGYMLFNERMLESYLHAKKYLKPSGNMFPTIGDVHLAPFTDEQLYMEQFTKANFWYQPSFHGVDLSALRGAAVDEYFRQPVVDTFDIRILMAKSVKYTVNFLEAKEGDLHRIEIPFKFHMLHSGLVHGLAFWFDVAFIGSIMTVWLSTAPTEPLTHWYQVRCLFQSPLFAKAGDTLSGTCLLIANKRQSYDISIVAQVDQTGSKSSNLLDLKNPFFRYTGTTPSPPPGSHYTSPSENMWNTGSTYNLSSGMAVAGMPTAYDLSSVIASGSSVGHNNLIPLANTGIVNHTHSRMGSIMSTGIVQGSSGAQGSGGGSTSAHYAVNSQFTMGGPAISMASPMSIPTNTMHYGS
Description: Inhibition of PRMT4 (unknown origin).

In data set [18] the test system is A549. Description: Induction of apoptosis in human A549 cells transfected in hnRNP E1 siRNA assessed as reduction in cell number incubated for 24 hrs by Hoechst 33258 staining based analysis. Type of data set: functional.
Data set [19] deals with Protein arginine N-methyltransferase 1 (Homo sapiens, UniProt Q99873). Description: Inhibition of PRMT1 (unknown origin).
Data set [20] relates to A549. The data set is described as follows: Inhibition of cell migration human A549 cells transfected with hnRNP E1 siRNA incubated upto 12 hrs by wound healing assay. Type of data set: functional, cell-based.
The test system of a further data set is MDA-MB-231. The data set is described as follows: Antiproliferative activity against human MDA-MB-231 cells assessed as inhibition of cell growth incubated for 24 hrs by SRB assay. Type of data set: functional, cell-based. The conditions noted are these: MDA-MB-231, 24 h.

The source made the active and inactive calls. The rule behind the calls is not given here. Bounds are passed on as bounds.

Broadly, the IC50 is the midpoint of a concentration-inhibition curve. For orientation: AUC(0-inf) means the area under the concentration-time curve extrapolated to infinity. A low value points to low exposure. As usually defined, the half-life is how long it takes for the measured level to halve. As usually defined, the AUC(0-t) is the area under the concentration-time curve up to a stated or last time point. A lower AUC(0-t) goes with low exposure. In general, Tmax refers to the time from dosing to the highest level. As usually defined, the Cmax is the highest concentration seen after dosing.

Protein arginine N-methyltransferase 5, sequence (O14744 whole entry): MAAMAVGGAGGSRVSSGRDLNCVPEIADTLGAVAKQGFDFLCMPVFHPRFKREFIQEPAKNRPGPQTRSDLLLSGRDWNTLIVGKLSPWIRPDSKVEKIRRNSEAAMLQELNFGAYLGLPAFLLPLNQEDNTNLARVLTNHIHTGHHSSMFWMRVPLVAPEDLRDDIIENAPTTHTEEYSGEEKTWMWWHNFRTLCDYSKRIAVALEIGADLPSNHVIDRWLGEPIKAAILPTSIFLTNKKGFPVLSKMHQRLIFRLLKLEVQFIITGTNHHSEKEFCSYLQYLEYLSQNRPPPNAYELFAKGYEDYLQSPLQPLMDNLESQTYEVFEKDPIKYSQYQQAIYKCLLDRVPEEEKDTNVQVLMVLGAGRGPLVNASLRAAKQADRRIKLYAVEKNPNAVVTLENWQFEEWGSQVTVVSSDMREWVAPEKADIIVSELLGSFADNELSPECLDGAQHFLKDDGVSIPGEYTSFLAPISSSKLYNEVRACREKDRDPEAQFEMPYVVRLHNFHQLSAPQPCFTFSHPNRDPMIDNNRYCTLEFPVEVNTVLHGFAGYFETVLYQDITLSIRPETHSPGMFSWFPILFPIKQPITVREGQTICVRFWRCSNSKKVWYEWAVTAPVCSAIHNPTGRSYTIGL
Protein arginine N-methyltransferase 1, sequence (Q99873 whole entry): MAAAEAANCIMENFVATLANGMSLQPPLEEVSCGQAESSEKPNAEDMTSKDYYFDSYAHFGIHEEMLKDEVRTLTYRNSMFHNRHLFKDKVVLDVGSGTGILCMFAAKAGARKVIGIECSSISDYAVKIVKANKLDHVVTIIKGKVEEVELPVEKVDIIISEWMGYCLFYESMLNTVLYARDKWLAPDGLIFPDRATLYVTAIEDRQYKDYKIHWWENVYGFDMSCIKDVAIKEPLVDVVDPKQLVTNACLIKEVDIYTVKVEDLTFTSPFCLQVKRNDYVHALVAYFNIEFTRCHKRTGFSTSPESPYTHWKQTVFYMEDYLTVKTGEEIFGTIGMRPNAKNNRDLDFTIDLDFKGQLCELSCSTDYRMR

Molecule `Cc1cc2ccccc2n1C[C@H](O)CN1CCc2ccccc2C1` yielded a 50% inhibitory concentration (IC50) in data set [1] of 1.3 µM. Further, the outcome in the data set on A549 [2] was Active.
In data set [1], `O[C@H](CN1CCc2cc(Br)ccc2C1)Cn1ccc2ccc(Br)cc21` had an IC50 of 2.44 µM. The outcome in the data set with A549 [2] was Active.
Take `COc1cc2c(cc1OC)CN(C[C@@H](O)Cn1ccc3ccc(Br)cc31)CC2`: the IC50 in data set [1] was 61.4 µM. The outcome in the data set with A549 [2] was Active.
In turn, `COc1ccc2c(c1)CCN(C[C@@H](O)Cn1ccc3cc(OC)ccc31)C2` returned a half-inhibitory concentration (IC50) in [1] of 36.3 µM. In addition, in the data set on A549 [2], the outcome was Active.
`O[C@H](CN1CCc2ccc(Br)cc2C1)Cn1ccc2ccc(Br)cc21` yielded an IC50 in data set [1] of 3.25 µM. The result in the data set on A549 [2] was Active.
In [1], `COc1ccc2c(ccn2C[C@H](O)CN2CCc3cc(O)ccc3C2)c1` returned an IC50 of 0.12 µM. Further, the result in the data set with A549 [2] was Active.
The corresponding values for `Cc1cc2cc(F)ccc2n1C[C@H](O)CN1CCc2ccccc2C1` are 22.5 µM and “Active”.
For `N#Cc1cn(C[C@H](O)CN2CCc3ccccc3C2)c2ccccc12`, inhibition in [1] was half-maximal at 2.1 µM (IC50). In the data set with A549 [2], the outcome was Active.
The molecule `O[C@H](CN1CCc2ccccc2C1)Cn1ccc2c(F)cccc21` yielded a concentration for half-maximal inhibition (IC50) in [1] of 1.7 µM. The result with A549 [2] was Active.
On the same counts, the results for `COc1ccc2c(ccn2C[C@H](O)CN2CCc3cc(OC)c(OC)cc3C2)c1` are 40.4 µM and “Active”.
In data set [3], `O=C(NC[C@H](O)CN1CCc2ccccc2C1)c1ccc2c(c1)CCN(C(=O)c1ccc(Br)cc1)C2` gave a total exposure AUC(0-inf) of 233 ng·h/mL. The half-life was 10.4 min in [4], 139 min in [6] and 86.9 min in data set [8]. In addition, half-maximal inhibition in data set [1] (IC50) was put at 0.008 µM. This molecule returned an AUC(0-t) at 24 h in [5] of 223 ng·h/mL. Besides, in data set [7], the Tmax was 18 min. In addition, the peak level in [9] (Cmax) was 77.1 ng/mL.
As for `Cc1cn(C[C@H](O)CN2CCc3ccccc3C2)c2ccccc12`, the IC50 in data set [1] amounted to 3.22 µM. In addition, the outcome in the data set with A549 [2] was Active.
Regarding `Cc1ccc2c(ccn2C[C@H](O)CN2CCc3ccccc3C2)c1`, in [1], it took 0.62 µM to reach half-maximal inhibition (IC50). Besides, in the data set with A549 [2], the outcome was Active.
`CC(=O)c1cn(C[C@H](O)CN2CCc3ccccc3C2)c2ccccc12`: inhibition in data set [1] was half-maximal at 2.52 µM (IC50). For the same molecule, the outcome in the data set with A549 [2] was Active.
The corresponding values for `O[C@H](CN1CCc2ccccc2C1)Cn1ccc2ccccc21` are 0.85 µM and “Active”.
On the same counts, the results for `Cc1cccc2c1ccn2C[C@H](O)CN1CCc2ccccc2C1` are 1.8 µM and “Active”.
For `O[C@H](CN1CCc2ccccc2C1)Cn1ccc2ccc(Cl)cc21`, in data set [1], half-maximal inhibition (IC50) required 0.53 µM. The outcome with A549 [2] was Active.
On the same counts, the results for `COc1ccc2c(ccn2C[C@H](O)CN2CCc3ccccc3C2C)c1` (some centres undefined) are 14.8 µM and “Active”.
`O[C@H](CN1CCc2ccccc2C1)Cn1ccc2cc(F)ccc21` returned an IC50 in data set [1] of 18.8 µM. In the data set with A549 [2], the outcome was Active.
On the same counts, the results for `COc1ccc2c(ccn2C[C@H](O)CN2CCc3cc(Br)ccc3C2)c1` are 51.3 µM and “Active”.
On the same counts, the results for `N#Cc1ccc2c(ccn2C[C@H](O)CN2CCc3ccccc3C2)c1` are 12 µM and “Active”.
`COc1ccc2c(c1)CCN(C[C@@H](O)Cn1ccc3ccc(Br)cc31)C2` had an IC50 in data set [1] of 31.8 µM. Besides, the outcome in the data set with A549 [2] was Active.
Consider `Oc1ccc2c(c1)CCN(C[C@@H](O)Cn1ccc3ccc(Br)cc31)C2`, for which the IC50 at 24 h in [10] is greater than 100 µM. The outcome in the data set on A549 [11], in the data set with A549 [12], in the data set on A549 [2] and with A549 [18] was Active. Further, the IC50 with A549 [13] is 14.2 µM; in the data set with MCF7 it was 28.9 µM; in the data set with HepG2 it was 58.1 µM; in [17] it was greater than 20 µM; in data set [19], 10.2 µM; with MDA-MB-231, 21.3 µM. Moreover, the Activity result in the data set on A549 [14] was “Dose-Dependent Effect”; with A549 [15], “Dose-Dependent Effect”; in the data set with A549 [16] it was 68%. The half-life came out at 4.7 min in data set [4] and 21.8 min in data set [8]. Also, the result in the data set on A549 [20] was inactive.
In data set [1], `N#Cc1ccc2ccn(C[C@H](O)CN3CCc4ccccc4C3)c2c1` yielded an IC50 of 1.21 µM. For the same molecule, the result in the data set on A549 [2] was Active.
Consider `CC1c2ccccc2CCN1C[C@@H](O)Cn1ccc2ccc(Br)cc21` (some centres undefined), for which the outcome with A549 [2] was Active.
As for `O[C@H](CN1CCc2ccccc2C1)Cn1ccc2ccc(Br)cc21`, in [10], the IC50 at 24 h is greater than 100 µM. Also, the IC50 with A549 [13] came out at 29.5 µM; in the data set on MCF7, 25.2 µM; in data set [1], 0.38 µM; with HepG2, 16.8 µM; in the data set with MDA-MB-231 it was 60.1 µM. Besides, in the data set with A549 [2], the result was Active.
Regarding `COc1cccc2c1ccn2C[C@H](O)CN1CCc2ccccc2C1`, in data set [1], half-maximal inhibition (IC50) required 4.58 µM. In addition, the result in the data set on A549 [2] was Active.
In [1], `O[C@H](CN1CCc2ccccc2C1)Cn1ccc2cc(Cl)ccc21` came in with an IC50 of 8.2 µM. Also, the result in the data set with A549 [2] was Active.
In the case of `N#Cc1cccc2c1ccn2C[C@H](O)CN1CCc2ccccc2C1`, 5.01 µM corresponded to half-maximal inhibition in data set [1] (IC50). The result in the data set with A549 [2] was Active.
The corresponding values for `Cc1ccc2ccn(C[C@H](O)CN3CCc4ccccc4C3)c2c1` are 6.4 µM and “Active”.
Turning to `N#CCc1cn(C[C@H](O)CN2CCc3ccccc3C2)c2ccccc12`, the IC50 in data set [1] came out at 4.12 µM. Further, in the data set with A549 [2], the result was Active.
On the same counts, the results for `COc1ccc2c(ccn2C[C@H](O)CN2CCc3ccc(Br)cc3C2)c1` are 33.2 µM and “Active”.
